Data: ChEMBL document CHEMBL1143418, “Colistin methanesulfonate against multidrug-resistant Acinetobacter baumannii in an in vitro pharmacodynamic model” (2007)
In brackets after ≈: the same amount, converted by molar mass. Activity calls are given as the source filed them. No cut-off for these calls is given here.

Experiments:
Acinetobacter baumannii [1] = assay: Antibacterial activity against multidrug-resistant Acinetobacter baumannii 06-74 isolate by CLSI microdilution test; assay type: functional
Acinetobacter baumannii [2] = assay: (§1) Antibacterial activity against multidrug-resistant Acinetobacter baumannii 06-74 isolate assessed as prevention of bacterial regrowth at 24 ug/ml first dose and 24 ug/ml of second dose administered 12 hrs after first dose as bolus dose in in vitro pharmacodynamic model vessel measured 2 to 3 hrs after last dose by time kill experiment; assay type: functional, organism-based
Acinetobacter baumannii [3] = assay: Antibacterial activity against multidrug-resistant Acinetobacter baumannii 06-74 isolate assessed as reduction in bacterial load at 50 ug/ml administered as continuous infusion in vitro pharmacodynamic model after 3 to 4 hrs by time kill experiment; assay type: functional
Acinetobacter baumannii [4] = assay: Antibacterial activity against multidrug-resistant Acinetobacter baumannii 06-74 isolate assessed as regrowth bacterial load at 50 ug/ml administered as continuous infusion in vitro pharmacodynamic model after 3 to 4 hrs by time kill experiment; assay type: functional
Acinetobacter baumannii [5] = assay: Antibacterial activity against 24 ug/mL bolus dose Colistin methanesulfonate exposed multidrug-resistant Acinetobacter baumannii 06-74 isolate by CLSI microdilution test; assay type: functional, organism-based
Acinetobacter baumannii [6] = assay: Antibacterial activity against 3 ug/mL Colistin methanesulfonate exposed multidrug-resistant Acinetobacter baumannii 06-74 isolate by CLSI microdilution test; assay type: functional, organism-based
Acinetobacter baumannii [7] = assay: Antibacterial activity against 6 ug/mL Colistin methanesulfonate exposed multidrug-resistant Acinetobacter baumannii 06-74 isolate by CLSI microdilution test; assay type: functional, organism-based
Acinetobacter baumannii [8] = assay: Antibacterial activity against 12 ug/mL Colistin methanesulfonate exposed multidrug-resistant Acinetobacter baumannii 06-74 isolate by CLSI microdilution test; assay type: functional, organism-based
Acinetobacter baumannii [9] = assay: Antibacterial activity against 24 ug/mL Colistin methanesulfonate exposed multidrug-resistant Acinetobacter baumannii 06-74 isolate by CLSI microdilution test; assay type: functional, organism-based
Acinetobacter baumannii [10] = assay: Antibacterial activity against multidrug-resistant Acinetobacter baumannii 06-74 isolate assessed as reduction in bacterial load at 3 ug/ml administered as bolus dose after 2 to 3 hrs by time kill experiment; assay type: functional, organism-based
Acinetobacter baumannii [11] = assay: Antibacterial activity against multidrug-resistant Acinetobacter baumannii 06-74 isolate assessed as reduction in bacterial load at 6 ug/ml administered as bolus dose after 2 to 3 hrs by time kill experiment; assay type: functional, organism-based
Acinetobacter baumannii [12] = assay: Antibacterial activity against multidrug-resistant Acinetobacter baumannii 06-74 isolate assessed as reduction in bacterial load at 12 ug/ml administered as bolus dose after 2 to 3 hrs by time kill experiment; assay type: functional, organism-based
Acinetobacter baumannii [13] = assay: Antibacterial activity against multidrug-resistant Acinetobacter baumannii 06-74 isolate assessed as reduction in bacterial load at 24 ug/ml administered as bolus dose after 2 to 3 hrs by time kill experiment; assay type: functional, organism-based
Acinetobacter baumannii [14] = assay: Antibacterial activity against multidrug-resistant Acinetobacter baumannii 06-74 isolate assessed as regrowth bacterial load at 3 ug/ml administered as bolus dose after 24 hrs by time kill experiment; assay type: functional, organism-based
Acinetobacter baumannii [15] = assay: Antibacterial activity against multidrug-resistant Acinetobacter baumannii 06-74 isolate assessed as regrowth bacterial load at 6 ug/ml administered as bolus dose after 24 hrs by time kill experiment; assay type: functional, organism-based
Acinetobacter baumannii [16] = assay: Antibacterial activity against multidrug-resistant Acinetobacter baumannii 06-74 isolate assessed as regrowth bacterial load at 12 ug/ml administered as bolus dose after 24 hrs by time kill experiment; assay type: functional, organism-based
Acinetobacter baumannii [17] = assay: Antibacterial activity against multidrug-resistant Acinetobacter baumannii 06-74 isolate assessed as regrowth bacterial load at 24 ug/ml administered as bolus dose after 24 hrs by time kill experiment; assay type: functional, organism-based
Acinetobacter baumannii [18] = assay: as §1, with “as reduction in” for “as prevention of”, “bacterial load” for “bacterial regrowth”, “at 3” for “at 24”; assay type: functional, organism-based
Acinetobacter baumannii [19] = assay: as §1, with “as reduction in” for “as prevention of”, “bacterial load” for “bacterial regrowth”, “at 6” for “at 24”; assay type: functional, organism-based
Acinetobacter baumannii [20] = assay: as §1, with “as reduction in” for “as prevention of”, “bacterial load” for “bacterial regrowth”, “at 12” for “at 24”; assay type: functional, organism-based
Acinetobacter baumannii [21] = assay: as §1, with “reduction in” for “prevention of”, “load” for “regrowth”; assay type: functional, organism-based
Acinetobacter baumannii [22] = assay: as §1, with “at 3” for “at 24”; assay type: functional, organism-based
Acinetobacter baumannii [23] = assay: as §1, with “at 6” for “at 24”; assay type: functional, organism-based
Acinetobacter baumannii [24] = assay: as §1, with “at 12” for “at 24”; assay type: functional, organism-based
Acinetobacter baumannii [25] = assay: Antibacterial activity against multidrug-resistant Acinetobacter baumannii 06-74 isolate by time kill experiment; assay type: functional, organism-based

Q: For `CC1(C)S[C@@H]2[C@H](NC(=O)[C@H](N)c3ccccc3)C(=O)N2[C@H]1C(=O)O` [AMPICILLIN], which MIC (Acinetobacter baumannii [1]) is on record?
A: Its MIC is ≥ 32 µg/mL.

Q: Which Activity (Acinetobacter baumannii [2]) does the source give for COLISTIN here?
A: The Activity was “inactive”.

Q: What about the Activity (Acinetobacter baumannii [3]) of the same molecule?
A: Its Activity is “inactive”.

Q: What about the Activity (Acinetobacter baumannii [4]) of the same molecule?
A: The Activity was “inactive”.

Q: What about the MIC (Acinetobacter baumannii [5]) of the same molecule?
A: The MIC was > 128 µg/mL.

Q: What about the MIC (Acinetobacter baumannii [6]) of the same molecule?
A: The MIC was 64 µg/mL.

Q: And the MIC (Acinetobacter baumannii [7])?
A: The MIC was > 64 µg/mL.

Q: And the MIC (Acinetobacter baumannii [8])?
A: The MIC was 128 µg/mL.

Q: What about the MIC (Acinetobacter baumannii [9]) of the same molecule?
A: Its MIC is > 32 µg/mL.

Q: And the log10CFU/ml (Acinetobacter baumannii [10])?
A: The log10CFU/ml was 3.

Q: And the log10CFU/ml (Acinetobacter baumannii [11])?
A: The log10CFU/ml was 3.

Q: What about the log10CFU/ml (Acinetobacter baumannii [12]) of the same molecule?
A: The log10CFU/ml was 3.

Q: And the log10CFU/ml (Acinetobacter baumannii [13])?
A: Its log10CFU/ml is 3.

Q: And the log10CFU/ml (Acinetobacter baumannii [14])?
A: Its log10CFU/ml is 7.

Q: And the log10CFU/ml (Acinetobacter baumannii [15])?
A: The log10CFU/ml was 7.

Q: What about the log10CFU/ml (Acinetobacter baumannii [16]) of the same molecule?
A: The log10CFU/ml was 7.

Q: And the log10CFU/ml (Acinetobacter baumannii [17])?
A: Its log10CFU/ml is 7.

Q: What about the Activity (Acinetobacter baumannii [18]) of the same molecule?
A: Its Activity is “inactive”.

Q: What about the Activity (Acinetobacter baumannii [19]) of the same molecule?
A: The Activity was “inactive”.

Q: What about the Activity (Acinetobacter baumannii [20]) of the same molecule?
A: Its Activity is “inactive”.

Q: What about the Activity (Acinetobacter baumannii [21]) of the same molecule?
A: Its Activity is “inactive”.

Q: And the Activity (Acinetobacter baumannii [22])?
A: The Activity was “inactive”.

Q: What about the Activity (Acinetobacter baumannii [23]) of the same molecule?
A: Its Activity is “inactive”.

Q: And the Activity (Acinetobacter baumannii [24])?
A: The Activity was “inactive”.

Q: With `O=C1CN(/N=C/c2ccc([N+](=O)[O-])o2)C(=O)N1` [NITROFURANTOIN] as the molecule, how does the MIC (Acinetobacter baumannii [1]) read?
A: Its MIC is ≥ 512 µg/mL.

Q: For COLISTIMETHATE SODIUM, which MIC (Acinetobacter baumannii [25]) is on record?
A: The MIC was > 2.05 mg/mL.

Q: What about the MIC (Acinetobacter baumannii [1]) of the same molecule?
A: The MIC was 2 µg/mL.

Q: `C[C@@H](O)[C@H]1C(=O)N2C(C(=O)O)=C(S[C@@H]3CN[C@H](C(=O)N(C)C)C3)[C@H](C)[C@H]12` [MEROPENEM] was tested. Which MIC (Acinetobacter baumannii [1]) did it give?
A: Its MIC is 1 µg/mL (≈ 2.61 µM).

Q: For `CC(C)(O/N=C(\C(=O)N[C@@H]1C(=O)N2C(C(=O)[O-])=C(C[n+]3ccccc3)CS[C@H]12)c1csc(N)n1)C(=O)O` [CEFTAZIDIME], which log10CFU/ml (Acinetobacter baumannii [3]) is on record?
A: Its log10CFU/ml is 3.

Q: What about the log10CFU/ml (Acinetobacter baumannii [4]) of the same molecule?
A: Its log10CFU/ml is 6.5.

Q: And the MIC (Acinetobacter baumannii [1])?
A: Its MIC is ≥ 64 µg/mL.

Q: How did the MIC (Acinetobacter baumannii [1]) turn out when `NCC[C@H](O)C(=O)N[C@@H]1C[C@H](N)[C@@H](O[C@H]2O[C@H](CN)[C@@H](O)[C@H](O)[C@H]2O)[C@H](O)[C@H]1O[C@H]1O[C@H](CO)[C@@H](O)[C@H](N)[C@H]1O` [AMIKACIN] was run?
A: The MIC was ≤ 2 µg/mL.

Q: How did the MIC (Acinetobacter baumannii [1]) turn out when `C[C@@H](O)[C@H]1C(=O)N2C(C(=O)O)=C(SCCNC=N)C[C@H]12` [IMIPENEM ANHYDROUS] was run?
A: Its MIC is ≤ 1 µg/mL.

Q: For `C[C@H]1COc2c(N3CCN(C)CC3)c(F)cc3c(=O)c(C(=O)O)cn1c23.C[C@H]1COc2c(N3CCN(C)CC3)c(F)cc3c(=O)c(C(=O)O)cn1c23.O` [LEVOFLOXACIN], which MIC (Acinetobacter baumannii [1]) is on record?
A: The MIC was ≥ 8 µg/mL.

Q: For GENTAMICIN, which MIC (Acinetobacter baumannii [1]) is on record?
A: The MIC was > 16 µg/mL.
